# Measurements from patent US8916702B2 (priority 2012, dated 2014).
# Tested on: HCV pseudoparticles (genotype 1a HCV E1 and E2 envelope, H77C isolate)
# Experiment: microbe, parasite or virus in culture
# Assay type: cell-based
# Details: Hepatitis C virus, Huh-7, 48 h, HCV pseudoparticles, Huh7 cells, luciferase 2 days after infection; average of duplicates
row,SMILES,EC50
1,O=C(NCC[C@H](NC(=O)c1ccc(Nc2nc(NC3(c4ccc(Cl)cc4)CC3)nc(OCC(F)(F)F)n2)cc1)C(=O)O)C(=O)Nc1cccc(OC(F)(F)F)c1 [Compound 3619],0.084 nM
2,CC(C)c1cccc(NC(=O)C(=O)NCC[C@H](NC(=O)c2ccc(Nc3nc(NC4(c5ccc(Cl)cc5)CC4)nc(OCC(F)(F)F)n3)cc2)C(=O)O)c1 [Compound 3627],0.1 nM
3,CC(F)Oc1cccc(NC(=O)C(=O)NCC[C@H](NC(=O)c2ccc(Nc3nc(NC4(c5ccc(Cl)cc5)CC4)nc(OCC(F)(F)F)n3)cc2)C(=O)O)c1 (stereo partly drawn) [Compound 3633],0.058 nM
4,O=C(NCC[C@H](NC(=O)c1ccc(Nc2nc(NC3(c4ccc(Cl)cc4)CC3)nc(OCC(F)(F)F)n2)cc1)C(=O)O)C(=O)Nc1ccc(Oc2ccccc2)nc1 [Compound 3640],16.1 nM
5,CC(C)(O)C=Cc1cccc(NC(=O)C(=O)NCC[C@H](NC(=O)c2ccc(Nc3nc(NC4(c5ccc(Cl)cc5)CC4)nc(OCC(F)(F)F)n3)cc2)C(=O)O)c1 [Compound 3648],0.2 nM
6,O=C(NCC[C@H](NC(=O)c1ccc(Nc2nc(NC3(c4ccc(Cl)cc4)CC3)nc(OCC(F)(F)F)n2)cc1)C(=O)O)C(=O)Nc1cccc(-c2cccnc2)c1 [Compound 3652],0.45 nM

# Same assay, conditions: Hepatitis C virus, Huh-7, 48 h, read-out: Activity (EC50 class), HCV pseudoparticles, Huh7 cells, luciferase 2 days after infection; average of duplicates
row,SMILES,EC50
1,COC(=O)[C@H](CCNC(=O)C(=O)Nc1cccc(Oc2ccccn2)c1)NC(=O)c1ccc(Nc2nc(NC3(c4ccc(Cl)cc4)CC3)nc(OCC(F)(F)F)n2)cc1 [Compound 3602],0.01 to 10 nM
2,COC(=O)[C@H](CCNC(=O)C(=O)Nc1cccc(-c2cccnc2)c1)NC(=O)c1ccc(Nc2nc(NC3(c4ccc(Cl)cc4)CC3)nc(OCC(F)(F)F)n2)cc1 [Compound 3604],0.01 to 10 nM
3,COC(=O)[C@H](CCNC(=O)C(=O)Nc1cccc(-n2cnnc2)c1)NC(=O)c1ccc(Nc2nc(NC3(c4ccc(Cl)cc4)CC3)nc(OCC(F)(F)F)n2)cc1 [Compound 3605],0.01 to 10 nM
4,COC(=O)[C@H](CCNC(=O)C(=O)Nc1cccc(-c2noc(C)n2)c1)NC(=O)c1ccc(Nc2nc(NC3(c4ccc(Cl)cc4)CC3)nc(OCC(F)(F)F)n2)cc1 [Compound 3606],0.01 to 10 nM
5,COC(=O)[C@H](CCNC(=O)C(=O)Nc1cccc(-c2nnnn2C)c1)NC(=O)c1ccc(Nc2nc(NC3(c4ccc(Cl)cc4)CC3)nc(OCC(F)(F)F)n2)cc1 [Compound 3607],0.01 to 10 nM
6,COC(=O)[C@H](CCNC(=O)C(=O)Nc1cccc(-c2c[nH]cn2)c1)NC(=O)c1ccc(Nc2nc(NC3(c4ccc(Cl)cc4)CC3)nc(OCC(F)(F)F)n2)cc1 [Compound 3608],0.01 to 10 nM
7,COC(=O)[C@H](CCNC(=O)C(=O)Nc1cccc(CCC(N)O)c1)NC(=O)c1ccc(Nc2nc(NC3(c4ccc(Cl)cc4)CC3)nc(OCC(F)(F)F)n2)cc1 (stereo partly drawn) [Compound 3609],0.01 to 10 nM
8,COC(=O)[C@H](CCNC(=O)C(=O)Nc1cccc(-n2ccnc2)c1)NC(=O)c1ccc(Nc2nc(NC3(c4ccc(Cl)cc4)CC3)nc(OCC(F)(F)F)n2)cc1 [Compound 3610],0.01 to 10 nM
9,O=C(NCC[C@H](NC(=O)c1ccc(Nc2nc(NC3(c4ccc(Cl)cc4)CC3)nc(OCC(F)(F)F)n2)cc1)C(=O)O)C(=O)Nc1ccc(Cl)nc1 [Compound 3611],0.01 to 10 nM
10,COC(=O)[C@H](CCNC(=O)C(=O)Nc1cccc(OCc2ccccc2)c1)NC(=O)c1ccc(Nc2nc(NC3(c4ccc(Cl)cc4)CC3)nc(OCC(F)(F)F)n2)cc1 [Compound 3612],0.01 to 10 nM
11,CCc1cccc(NC(=O)C(=O)NCC[C@H](NC(=O)c2ccc(Nc3nc(NC4(c5ccc(Cl)cc5)CC4)nc(OCC(F)(F)F)n3)cc2)C(=O)O)c1 [Compound 3614],0.01 to 10 nM
12,NC(=O)c1cccc(NC(=O)C(=O)NCC[C@H](NC(=O)c2ccc(Nc3nc(NC4(c5ccc(Cl)cc5)CC4)nc(OCC(F)(F)F)n3)cc2)C(=O)O)c1 [Compound 3615],0.01 to 10 nM
13,O=C(NCC[C@H](NC(=O)c1ccc(Nc2nc(NC3(c4ccc(Cl)cc4)CC3)nc(OCC(F)(F)F)n2)cc1)C(=O)O)C(=O)Nc1cccc(C(=O)Nc2ccccc2)c1 [Compound 3617],0.01 to 10 nM
14,O=C(NCC[C@H](NC(=O)c1ccc(Nc2nc(NC3(c4ccc(Cl)cc4)CC3)nc(OCC(F)(F)F)n2)cc1)C(=O)O)C(=O)Nc1cccc(C(=O)c2ccccc2)c1 [Compound 3618],0.01 to 10 nM
15,O=C(NCC[C@H](NC(=O)c1ccc(Nc2nc(NC3(c4ccc(Cl)cc4)CC3)nc(OCC(F)(F)F)n2)cc1)C(=O)O)C(=O)Nc1cccc(OC(F)(F)F)c1 [Compound 3619],0.01 to 10 nM
16,O=C(NCC[C@H](NC(=O)c1ccc(Nc2nc(NC3(c4ccc(Cl)cc4)CC3)nc(OCC(F)(F)F)n2)cc1)C(=O)O)C(=O)Nc1cccc(Oc2ccccc2)c1 [Compound 3620],0.01 to 10 nM
17,O=C(NCC[C@H](NC(=O)c1ccc(Nc2nc(NC3(c4ccc(Cl)cc4)CC3)nc(OCC(F)(F)F)n2)cc1)C(=O)O)C(=O)Nc1cccc(-c2cnco2)c1 [Compound 3621],0.01 to 10 nM
18,O=C(NCC[C@H](NC(=O)c1ccc(Nc2nc(NC3(c4ccc(Cl)cc4)CC3)nc(OCC(F)(F)F)n2)cc1)C(=O)O)C(=O)Nc1ccc(Oc2cccnc2)nc1 [Compound 3624],0.01 to 10 nM
19,Cc1nccc(-c2cccc(NC(=O)C(=O)NCC[C@H](NC(=O)c3ccc(Nc4nc(NC5(c6ccc(Cl)cc6)CC5)nc(OCC(F)(F)F)n4)cc3)C(=O)O)c2)n1 [Compound 3625],0.01 to 10 nM
20,CC(C)c1cccc(NC(=O)C(=O)NCC[C@H](NC(=O)c2ccc(Nc3nc(NC4(c5ccc(Cl)cc5)CC4)nc(OCC(F)(F)F)n3)cc2)C(=O)O)c1 [Compound 3627],0.01 to 10 nM
21,O=C(NCC[C@H](NC(=O)c1ccc(Nc2nc(NC3(c4ccc(Cl)cc4)CC3)nc(OCC(F)(F)F)n2)cc1)C(=O)O)C(=O)Nc1ccc(N2CCOCC2)nc1 [Compound 3628],0.01 to 10 nM
22,CC(C)(C)c1cccc(NC(=O)C(=O)NCC[C@H](NC(=O)c2ccc(Nc3nc(NC4(c5ccc(Cl)cc5)CC4)nc(OCC(F)(F)F)n3)cc2)C(=O)O)c1 [Compound 3629],0.01 to 10 nM
23,Nc1ccc(NC(=O)C(=O)NCC[C@H](NC(=O)c2ccc(Nc3nc(NC4(c5ccc(Cl)cc5)CC4)nc(OCC(F)(F)F)n3)cc2)C(=O)O)cn1 [Compound 3630],0.01 to 10 nM
24,CC(=O)Nc1ccc(NC(=O)C(=O)NCC[C@H](NC(=O)c2ccc(Nc3nc(NC4(c5ccc(Cl)cc5)CC4)nc(OCC(F)(F)F)n3)cc2)C(=O)O)cn1 [Compound 3631],0.01 to 10 nM

row,SMILES,EC50
1,CS(=O)(=O)c1cccc(NC(=O)C(=O)NCC[C@H](NC(=O)c2ccc(Nc3nc(NC4(c5ccc(Cl)cc5)CC4)nc(OCC(F)(F)F)n3)cc2)C(=O)O)c1 [Compound 3632],0.01 to 10 nM
2,CC(F)Oc1cccc(NC(=O)C(=O)NCC[C@H](NC(=O)c2ccc(Nc3nc(NC4(c5ccc(Cl)cc5)CC4)nc(OCC(F)(F)F)n3)cc2)C(=O)O)c1 (stereo partly drawn) [Compound 3633],0.01 to 10 nM
3,O=C(NCC[C@H](NC(=O)c1ccc(Nc2nc(NC3(c4ccc(Cl)cc4)CC3)nc(OCC(F)(F)F)n2)cc1)C(=O)O)C(=O)Nc1cccc(-c2ncc[nH]2)c1 [Compound 3634],0.01 to 10 nM
4,Cc1ccc(NC(=O)C(=O)NCC[C@H](NC(=O)c2ccc(Nc3nc(NC4(c5ccc(Cl)cc5)CC4)nc(OCC(F)(F)F)n3)cc2)C(=O)O)cn1 [Compound 3636],0.01 to 10 nM
5,O=C(NCC[C@H](NC(=O)c1ccc(Nc2nc(NC3(c4ccc(Cl)cc4)CC3)nc(OCC(F)(F)F)n2)cc1)C(=O)O)C(=O)Nc1cccc(-c2ccncc2)c1 [Compound 3637],0.01 to 10 nM
6,O=C(NCC[C@H](NC(=O)c1ccc(Nc2nc(NC3(c4ccc(Cl)cc4)CC3)nc(OCC(F)(F)F)n2)cc1)C(=O)O)C(=O)Nc1cccc(CCc2ccccn2)c1 [Compound 3638],0.01 to 10 nM
7,O=C(NCC[C@H](NC(=O)c1ccc(Nc2nc(NC3(c4ccc(Cl)cc4)CC3)nc(OCC(F)(F)F)n2)cc1)C(=O)O)C(=O)Nc1cccc(Cc2ccccc2)c1 [Compound 3639],0.01 to 10 nM
8,O=C(NCC[C@H](NC(=O)c1ccc(Nc2nc(NC3(c4ccc(Cl)cc4)CC3)nc(OCC(F)(F)F)n2)cc1)C(=O)O)C(=O)Nc1ccc(Oc2ccccc2)nc1 [Compound 3640],10 to 1000 nM
9,O=C(NCC[C@H](NC(=O)c1ccc(Nc2nc(NC3(c4ccc(Cl)cc4)CC3)nc(OCC(F)(F)F)n2)cc1)C(=O)O)C(=O)Nc1cccc(S(=O)(=O)N2CCCCC2)c1 [Compound 3641],0.01 to 10 nM
10,Cc1nc(-c2cccc(NC(=O)C(=O)NCC[C@H](NC(=O)c3ccc(Nc4nc(NC5(c6ccc(Cl)cc6)CC5)nc(OCC(F)(F)F)n4)cc3)C(=O)O)c2)cs1 [Compound 3642],0.01 to 10 nM
11,Cn1cnnc1-c1cccc(NC(=O)C(=O)NCC[C@H](NC(=O)c2ccc(Nc3nc(NC4(c5ccc(Cl)cc5)CC4)nc(OCC(F)(F)F)n3)cc2)C(=O)O)c1 [Compound 3643],10 to 1000 nM
12,Cc1ccc(-c2cccc(NC(=O)C(=O)NCC[C@H](NC(=O)c3ccc(Nc4nc(NC5(c6ccc(Cl)cc6)CC5)nc(OCC(F)(F)F)n4)cc3)C(=O)O)c2)cc1 [Compound 3644],0.01 to 10 nM
13,O=C(NCC[C@H](NC(=O)c1ccc(Nc2nc(NC3(c4ccc(Cl)cc4)CC3)nc(OCC(F)(F)F)n2)cc1)C(=O)O)C(=O)Nc1ccc(N2CCCC2)nc1 [Compound 3645],0.01 to 10 nM
14,O=C(NCC[C@H](NC(=O)c1ccc(Nc2nc(NC3(c4ccc(Cl)cc4)CC3)nc(OCC(F)(F)F)n2)cc1)C(=O)O)C(=O)Nc1ccc(O)nc1 [Compound 3646],0.01 to 10 nM
15,O=C(NCC[C@H](NC(=O)c1ccc(Nc2nc(NC3(c4ccc(Cl)cc4)CC3)nc(OCC(F)(F)F)n2)cc1)C(=O)O)C(=O)Nc1cccc(CN2CCCC2)c1 [Compound 3647],0.01 to 10 nM
16,CC(C)(O)C=Cc1cccc(NC(=O)C(=O)NCC[C@H](NC(=O)c2ccc(Nc3nc(NC4(c5ccc(Cl)cc5)CC4)nc(OCC(F)(F)F)n3)cc2)C(=O)O)c1 [Compound 3648],0.01 to 10 nM
17,Cc1csc(-c2cccc(NC(=O)C(=O)NCC[C@H](NC(=O)c3ccc(Nc4nc(NC5(c6ccc(Cl)cc6)CC5)nc(OCC(F)(F)F)n4)cc3)C(=O)O)c2)n1 [Compound 3649],0.01 to 10 nM
18,O=C(NCC[C@H](NC(=O)c1ccc(Nc2nc(NC3(c4ccc(Cl)cc4)CC3)nc(OCC(F)(F)F)n2)cc1)C(=O)O)C(=O)Nc1cccc(Cc2ccccn2)c1 [Compound 3650],0.01 to 10 nM
19,CNS(=O)(=O)c1cccc(NC(=O)C(=O)NCC[C@H](NC(=O)c2ccc(Nc3nc(NC4(c5ccc(Cl)cc5)CC4)nc(OCC(F)(F)F)n3)cc2)C(=O)O)c1 [Compound 3651],0.01 to 10 nM
20,O=C(NCC[C@H](NC(=O)c1ccc(Nc2nc(NC3(c4ccc(Cl)cc4)CC3)nc(OCC(F)(F)F)n2)cc1)C(=O)O)C(=O)Nc1cccc(-c2cccnc2)c1 [Compound 3652],0.01 to 10 nM
21,O=C(NCC[C@H](NC(=O)c1ccc(Nc2nc(NC3(c4ccc(Cl)cc4)CC3)nc(OCC(F)(F)F)n2)cc1)C(=O)O)C(=O)Nc1cccc(-n2cnnc2)c1 [Compound 3653],0.01 to 10 nM
22,Cc1nc(-c2cccc(NC(=O)C(=O)NCC[C@H](NC(=O)c3ccc(Nc4nc(NC5(c6ccc(Cl)cc6)CC5)nc(OCC(F)(F)F)n4)cc3)C(=O)O)c2)no1 [Compound 3654],0.01 to 10 nM
23,Cn1nnnc1-c1cccc(NC(=O)C(=O)NCC[C@H](NC(=O)c2ccc(Nc3nc(NC4(c5ccc(Cl)cc5)CC4)nc(OCC(F)(F)F)n3)cc2)C(=O)O)c1 [Compound 3655],0.01 to 10 nM
24,O=C(NCC[C@H](NC(=O)c1ccc(Nc2nc(NC3(c4ccc(Cl)cc4)CC3)nc(OCC(F)(F)F)n2)cc1)C(=O)O)C(=O)Nc1cccc(-c2c[nH]cn2)c1 [Compound 3656],0.01 to 10 nM
